Data as given in ChEMBL document CHEMBL1201862, “PubChem BioAssay data set” (2004).
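Following 48 hours of exposure in 96-well plates, responses at five concentrations were used to interpolate endpoints linearly. GI50 is the concentration that inhibits growth by half.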 Activity calls are given as the source filed them. No stated cut-off is given here; in the data, active = GI50 up to about 1.1 µM and inactive = higher.

What was measured:
Assay in all cases: growth of human tumour cells (NCI), 48 h
SR = tested on: SR
NCI-H23 = tested on: NCI-H23
HCC 2998 = tested on: HCC 2998
ACHN = tested on: ACHN
HCT-15 = tested on: HCT-15
SK-MEL-5 = tested on: SK-MEL-5
COLO 205 = tested on: COLO 205
SNB-78 = tested on: SNB-78
HT-29 = tested on: HT-29
OVCAR-4 = tested on: OVCAR-4
RXF 393 = tested on: RXF 393
HCT-116 = tested on: HCT-116
SK-MEL-2 = tested on: SK-MEL-2
UACC-257 = tested on: UACC-257
NCI-H522 = tested on: NCI-H522
HOP-92 = tested on: HOP-92
MDA-MB-435 = tested on: MDA-MB-435
MDA-N = tested on: MDA-N
Hs-578T = tested on: Hs-578T
PC-3 = tested on: PC-3

Row | Structure (SMILES) | GI50 (SR) | GI50 (NCI-H23) | GI50 (HCC 2998) | GI50 (ACHN) | GI50 (HCT-15) | GI50 (SK-MEL-5) | GI50 (COLO 205) | GI50 (SNB-78) | GI50 (HT-29) | GI50 (OVCAR-4) | GI50 (RXF 393) | GI50 (HCT-116) | GI50 (SK-MEL-2) | GI50 (UACC-257) | GI50 (NCI-H522) | GI50 (HOP-92) | GI50 (MDA-MB-435) | GI50 (MDA-N) | GI50 (Hs-578T) | GI50 (PC-3)
1 | Cn1c2c(c3ccccc31)C1CCCCC1C1C(=O)NC(=O)C21 (centres undefined) | 32.1 µM (inactive) | > 100 µM (inactive) | 52.2 µM (inactive) | 35.2 µM (inactive) | 68.9 µM | 45 µM (inactive) | 39.9 µM (inactive) | > 100 µM (inactive) | 33.1 µM (inactive) | 56.5 µM (inactive) | 32.4 µM (inactive) | – | – | – | – | – | – | – | – | –
2 | C1CN2CCN3CCN4CCN1[PH]243 | > 100 µM (inactive) | > 100 µM (inactive) | > 100 µM (inactive) | > 100 µM (inactive) | > 100 µM | > 100 µM (inactive) | > 100 µM (inactive) | > 100 µM (inactive) | > 100 µM (inactive) | > 100 µM (inactive) | > 100 µM (inactive) | > 100 µM (inactive) | > 100 µM (inactive) | > 100 µM (inactive) | > 100 µM (inactive) | – | – | – | – | –
3 | O=C1OCCC1(Cc1ccc(Cl)cc1)Cc1ccc(Cl)cc1 | > 100 µM (inactive) | 53.2 µM (inactive) | – | > 100 µM (inactive) | – | – | > 100 µM (inactive) | 42.3 µM (inactive) | > 100 µM (inactive) | 36.2 µM (inactive) | – | > 100 µM (inactive) | 71.8 µM (inactive) | > 100 µM (inactive) | > 100 µM (inactive) | 30.3 µM (inactive) | – | – | – | –
4 | Nc1c(C(=O)Nc2ccccc2)[n+]([O-])c2ccccc2[n+]1[O-] | – | 12.5 µM (inactive) | 17.6 µM (inactive) | 16.3 µM (inactive) | 13.1 µM | 14.3 µM (inactive) | 15.5 µM (inactive) | 16.9 µM (inactive) | 16.6 µM (inactive) | 17.6 µM (inactive) | – | – | 15.8 µM (inactive) | 17.9 µM (inactive) | 2.09 µM (inactive) | 16.7 µM (inactive) | – | – | – | –
5 | COC(=O)C12C(=O)O[C@H](C)C1(O)C(C)C(=O)N2C (some centres undefined) | > 100 µM (inactive) | > 100 µM (inactive) | > 100 µM (inactive) | – | > 100 µM | > 100 µM (inactive) | > 100 µM (inactive) | > 100 µM (inactive) | > 100 µM (inactive) | > 100 µM (inactive) | > 100 µM (inactive) | > 100 µM (inactive) | > 100 µM (inactive) | – | – | < 0.01 µM (active) | – | – | – | –
6 | CCOc1ccc(NC(=O)C2=C(C)NC(C)=C(C(=O)Nc3ccc(OCC)cc3)C2c2ccc(O)c(OC)c2)cc1 | – | > 100 µM (inactive) | 2.35 µM (inactive) | 55.1 µM (inactive) | – | 46 µM (inactive) | 96.8 µM (inactive) | 44.1 µM (inactive) | > 100 µM (inactive) | 36.9 µM (inactive) | 28.9 µM (inactive) | – | 64.6 µM (inactive) | 47.8 µM (inactive) | 56.6 µM (inactive) | 20.4 µM (inactive) | – | – | – | –
7 | CCOP(=O)(OCC)C1CCCCOC1=O (centres undefined) | – | > 100 µM (inactive) | > 100 µM (inactive) | > 100 µM (inactive) | > 100 µM | > 100 µM (inactive) | > 100 µM (inactive) | > 100 µM (inactive) | > 100 µM (inactive) | > 100 µM (inactive) | > 100 µM (inactive) | > 100 µM (inactive) | > 100 µM (inactive) | > 100 µM (inactive) | – | – | – | – | – | –
8 | C=C(CO)CC(/C=C(\C)CC/C=C(\C)CCl)OC(C)=O (centres undefined) | – | > 100 µM (inactive) | > 100 µM (inactive) | > 100 µM (inactive) | > 100 µM | > 100 µM (inactive) | > 100 µM (inactive) | > 100 µM (inactive) | > 100 µM (inactive) | > 100 µM (inactive) | > 100 µM (inactive) | > 100 µM (inactive) | > 100 µM (inactive) | – | > 100 µM (inactive) | 5.7 µM (inactive) | – | – | – | –
9 | OC12c3ccccc3C1CCCCC2N1CCCC1 (centres undefined) | > 100 µM (inactive) | > 100 µM (inactive) | – | > 100 µM (inactive) | > 100 µM | > 100 µM (inactive) | > 100 µM (inactive) | > 100 µM (inactive) | > 100 µM (inactive) | > 100 µM (inactive) | > 100 µM (inactive) | > 100 µM (inactive) | > 100 µM (inactive) | > 100 µM (inactive) | > 100 µM (inactive) | – | – | – | – | –
10 | CC1C(O)=C(O)c2ccccc2N1O (centres undefined) | – | 54.7 µM (inactive) | > 100 µM (inactive) | > 100 µM (inactive) | 96.6 µM | > 100 µM (inactive) | > 100 µM (inactive) | > 100 µM (inactive) | 12.2 µM (inactive) | > 100 µM (inactive) | 60.4 µM (inactive) | 49.8 µM (inactive) | > 100 µM (inactive) | 83.2 µM (inactive) | 25.1 µM (inactive) | 31.9 µM (inactive) | – | – | – | –
11 | O=C(Cc1ccccc1)N/N=C(/c1nc2ccc([N+](=O)[O-])cc2nc1O)C(O)c1ccco1 (centres undefined) | > 100 µM (inactive) | > 100 µM (inactive) | > 100 µM (inactive) | 57.4 µM (inactive) | 67.8 µM | 66.4 µM (inactive) | > 100 µM (inactive) | > 100 µM (inactive) | > 100 µM (inactive) | > 100 µM (inactive) | – | > 100 µM (inactive) | > 100 µM (inactive) | > 100 µM (inactive) | 12.6 µM (inactive) | > 100 µM (inactive) | – | – | – | –
12 | COc1cc(-c2oc3c(OC)c(O)cc(O)c3c(=O)c2OC)ccc1O | 3.24 µM (inactive) | 16.7 µM (inactive) | 10.9 µM (inactive) | 3.99 µM (inactive) | 3.67 µM | 6.31 µM (inactive) | 29.1 µM (inactive) | – | 37.4 µM (inactive) | 8.41 µM (inactive) | 3.73 µM (inactive) | 6.4 µM (inactive) | 2.75 µM (inactive) | 26 µM (inactive) | 8.17 µM (inactive) | 3.83 µM (inactive) | 7.35 µM (inactive) | 10.6 µM (inactive) | 1.84 µM (inactive) | 6.44 µM (inactive)
13 | CCOC(=O)c1cnccc1CC1(C#N)c2ccccc2C=CN1C(=O)c1ccccc1 (centres undefined) | 26.8 µM (inactive) | 32.5 µM (inactive) | 30.3 µM (inactive) | 39.4 µM (inactive) | 31 µM | 15.3 µM (inactive) | 28.2 µM (inactive) | – | 12.3 µM (inactive) | 21.7 µM (inactive) | 64.9 µM (inactive) | 29.2 µM (inactive) | 21.6 µM (inactive) | 34.7 µM (inactive) | 18.6 µM (inactive) | 37.5 µM (inactive) | 35.6 µM (inactive) | 18.1 µM (inactive) | 13 µM (inactive) | 20.4 µM (inactive)
14 | Cc1ccc(NC(=O)CC/C(CC(=O)C(C)(C)C)=N/NC(=O)C[N+](C)(C)C)cc1C | 84.1 µM (inactive) | > 100 µM (inactive) | > 100 µM (inactive) | > 100 µM (inactive) | > 100 µM | > 100 µM (inactive) | > 100 µM (inactive) | > 100 µM (inactive) | > 100 µM (inactive) | > 100 µM (inactive) | > 100 µM (inactive) | > 100 µM (inactive) | > 100 µM (inactive) | > 100 µM (inactive) | – | – | – | – | – | –
15 | Cc1cc(N(CCC#N)CCC#N)ccc1/C=C(/NC(=O)/C=C/c1ccccc1)C(N)=O | – | > 100 µM (inactive) | > 100 µM (inactive) | > 100 µM (inactive) | > 100 µM | > 100 µM (inactive) | > 100 µM (inactive) | 97.1 µM (inactive) | > 100 µM (inactive) | – | 4.19 µM (inactive) | > 100 µM (inactive) | > 100 µM (inactive) | > 100 µM (inactive) | 13.8 µM (inactive) | – | – | – | – | –
16 | CC(=O)N1CCN(C23OC4(N5CCN(C(C)=O)CC5)C5C6CC(C7C6C4C72)C53)CC1 (centres undefined) | > 100 µM (inactive) | > 100 µM (inactive) | > 100 µM (inactive) | > 100 µM (inactive) | > 100 µM | > 100 µM (inactive) | > 100 µM (inactive) | – | > 100 µM (inactive) | > 100 µM (inactive) | > 100 µM (inactive) | > 100 µM (inactive) | > 100 µM (inactive) | > 100 µM (inactive) | > 100 µM (inactive) | > 100 µM (inactive) | > 100 µM (inactive) | > 100 µM (inactive) | > 100 µM (inactive) | > 100 µM (inactive)
17 | CCN(CC)C1CCC(C2c3cc4c(cc3OC(N3CCOCC3)C2C)OCO4)CC1 (centres undefined) | 23.4 µM (inactive) | 19.6 µM (inactive) | 10 µM (inactive) | 16.7 µM (inactive) | 12.1 µM | 9.31 µM (inactive) | 7.98 µM (inactive) | – | 5.75 µM (inactive) | > 100 µM (inactive) | 10.7 µM (inactive) | 32.3 µM (inactive) | 5.62 µM (inactive) | 18.4 µM (inactive) | 12.4 µM (inactive) | 4.09 µM (inactive) | 6.81 µM (inactive) | 4.28 µM (inactive) | 28.7 µM (inactive) | 10.4 µM (inactive)
18 | CC1=C(C(=O)CC(=O)C(=O)Nc2ccccc2)Sc2ccccc2N1 | – | > 100 µM (inactive) | – | > 100 µM (inactive) | > 100 µM | > 100 µM (inactive) | > 100 µM (inactive) | > 100 µM (inactive) | > 100 µM (inactive) | > 100 µM (inactive) | > 100 µM (inactive) | > 100 µM (inactive) | > 100 µM (inactive) | > 100 µM (inactive) | > 100 µM (inactive) | 2.84 µM (inactive) | – | – | – | –
19 | O=C1NC(N2CCCCC2)=N/C1=C\c1ccc(Cl)cc1 | > 100 µM (inactive) | 37.2 µM (inactive) | 19.8 µM (inactive) | 36.4 µM (inactive) | 43.1 µM | 35.5 µM (inactive) | 74.5 µM (inactive) | – | 16.6 µM (inactive) | 68.4 µM (inactive) | > 100 µM (inactive) | 26.5 µM (inactive) | > 100 µM (inactive) | 36.6 µM (inactive) | 21 µM (inactive) | 13 µM (inactive) | 60.4 µM (inactive) | 71 µM (inactive) | 28.5 µM (inactive) | 37.1 µM (inactive)
